In the supplement of paper PMC6045584:
± gives the standard deviation of the averaged measurements.

Experiments:
NILOTINIB = compound: Cc1cn(-c2cc(NC(=O)c3ccc(C)c(Nc4nccc(-c5cccnc5)n4)c3)cc(C(F)(F)F)c2)cn1 [NILOTINIB]; test: surviving fraction relative to DMSO-only wells; higher = less growth inhibition; conditions: exposure time: 5 days
Outline: (§1)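 Tumour cell lines were seeded in log phase at 250–500 cells per well into 384-well plates. Starting 24 hours later, inhibitors were present continuously for five days at 0.5, 1, 5, 10, 50, 100, 500 and 1000 nM. Surviving fraction, from CellTiter-Glo luminescence, is normalised to the median of DMSO-only wells. Three screens per line were required, with replicate Pearson r >0.7 and median Z' >0.3 for a line to be kept.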

VORINOSTAT = compound: O=C(CCCCCCC(=O)Nc1ccccc1)NO [VORINOSTAT]; test: as above; conditions: exposure time: 5 days
Outline: as §1

## U2OS BONE
NILOTINIB; 0.5 nM
  surviving fraction: 1.03 ± 0.032
NILOTINIB; 1 nM
  surviving fraction: 1.02 ± 0.037
NILOTINIB; 5 nM
  surviving fraction: 1.11 ± 0.032
NILOTINIB; 10 nM
  surviving fraction: 1.11 ± 0.06
NILOTINIB; 50 nM
  surviving fraction: 1.07 ± 0.059
NILOTINIB; 100 nM
  surviving fraction: 1.13 ± 0.088
NILOTINIB; 500 nM
  surviving fraction: 1.11 ± 0.095
NILOTINIB; 1000 nM
  surviving fraction: 1.09 ± 0.095
VORINOSTAT; 0.5 nM
  surviving fraction: 0.934 ± 0.013
VORINOSTAT; 1 nM
  surviving fraction: 1.03 ± 0.015
VORINOSTAT; 5 nM
  surviving fraction: 0.995 ± 0.026
VORINOSTAT; 10 nM
  surviving fraction: 1.01 ± 0.02
VORINOSTAT; 50 nM
  surviving fraction: 1.01 ± 0.016
VORINOSTAT; 100 nM
  surviving fraction: 1.04 ± 0.04
VORINOSTAT; 500 nM
  surviving fraction: 0.909 ± 0.047
VORINOSTAT; 1000 nM
  surviving fraction: 0.751 ± 0.051

## VCAP PROSTATE
NILOTINIB; 0.5 nM
  surviving fraction: 0.999 ± 0.1
NILOTINIB; 1 nM
  surviving fraction: 1.03 ± 0.088
NILOTINIB; 5 nM
  surviving fraction: 1.16 ± 0.13
NILOTINIB; 10 nM
  surviving fraction: 1.06 ± 0.076
NILOTINIB; 50 nM
  surviving fraction: 1.02 ± 0.075
NILOTINIB; 100 nM
  surviving fraction: 0.966 ± 0.073
NILOTINIB; 500 nM
  surviving fraction: 0.952 ± 0.14
NILOTINIB; 1000 nM
  surviving fraction: 0.862 ± 0.067
VORINOSTAT; 0.5 nM
  surviving fraction: 1.09 ± 0.082
VORINOSTAT; 1 nM
  surviving fraction: 1.12 ± 0.054
VORINOSTAT; 5 nM
  surviving fraction: 1.15 ± 0.015
VORINOSTAT; 10 nM
  surviving fraction: 1.17 ± 0.11
VORINOSTAT; 50 nM
  surviving fraction: 1.16 ± 0.11
VORINOSTAT; 100 nM
  surviving fraction: 0.994 ± 0.022
VORINOSTAT; 500 nM
  surviving fraction: 0.449 ± 0.017
VORINOSTAT; 1000 nM
  surviving fraction: 0.261 ± 0.04

## VP229 BREAST
NILOTINIB; 0.5 nM
  surviving fraction: 1.24 ± 0.14
NILOTINIB; 1 nM
  surviving fraction: 1.12 ± 0.11
NILOTINIB; 5 nM
  surviving fraction: 1.04 ± 0.075
NILOTINIB; 10 nM
  surviving fraction: 1.18 ± 0.24
NILOTINIB; 50 nM
  surviving fraction: 1.05 ± 0.041
NILOTINIB; 100 nM
  surviving fraction: 1.08 ± 0.094
NILOTINIB; 500 nM
  surviving fraction: 1.28 ± 0.04
NILOTINIB; 1000 nM
  surviving fraction: 1.12 ± 0.059
VORINOSTAT; 0.5 nM
  surviving fraction: 0.931 ± 0.099
VORINOSTAT; 1 nM
  surviving fraction: 1.04 ± 0.054
VORINOSTAT; 5 nM
  surviving fraction: 1.02 ± 0.11
VORINOSTAT; 10 nM
  surviving fraction: 0.924 ± 0.033
VORINOSTAT; 50 nM
  surviving fraction: 1.1 ± 0.086
VORINOSTAT; 100 nM
  surviving fraction: 1.04 ± 0.022
VORINOSTAT; 500 nM
  surviving fraction: 0.6 ± 0.11
VORINOSTAT; 1000 nM
  surviving fraction: 0.352 ± 0.058

## YAMATO SYNOVIAL
NILOTINIB; 0.5 nM
  surviving fraction: 1.18 ± 0.14
NILOTINIB; 1 nM
  surviving fraction: 1.22 ± 0.016
NILOTINIB; 5 nM
  surviving fraction: 1.28 ± 0.064
NILOTINIB; 10 nM
  surviving fraction: 1.26 ± 0.1
NILOTINIB; 50 nM
  surviving fraction: 1 ± 0.05
NILOTINIB; 100 nM
  surviving fraction: 0.94 ± 0.096
NILOTINIB; 500 nM
  surviving fraction: 0.771 ± 0.024
NILOTINIB; 1000 nM
  surviving fraction: 0.658 ± 0.031
VORINOSTAT; 0.5 nM
  surviving fraction: 1.31 ± 0.099
VORINOSTAT; 1 nM
  surviving fraction: 0.905 ± 0.031
VORINOSTAT; 5 nM
  surviving fraction: 1.19 ± 0.027
VORINOSTAT; 10 nM
  surviving fraction: 0.742 ± 0.072
VORINOSTAT; 50 nM
  surviving fraction: 1.28 ± 0.068
VORINOSTAT; 100 nM
  surviving fraction: 1.16 ± 0.016
VORINOSTAT; 500 nM
  surviving fraction: 0.82 ± 0.026
VORINOSTAT; 1000 nM
  surviving fraction: 0.533 ± 0.038

## ZR751 BREAST
NILOTINIB; 0.5 nM
  surviving fraction: 1.05 ± 0.13
NILOTINIB; 1 nM
  surviving fraction: 1.01 ± 0.11
NILOTINIB; 5 nM
  surviving fraction: 1.069 ± 0.0042
NILOTINIB; 10 nM
  surviving fraction: 1.03 ± 0.14
NILOTINIB; 50 nM
  surviving fraction: 0.895 ± 0.03
NILOTINIB; 100 nM
  surviving fraction: 0.834 ± 0.14
NILOTINIB; 500 nM
  surviving fraction: 0.826 ± 0.058
NILOTINIB; 1000 nM
  surviving fraction: 0.66 ± 0.073
VORINOSTAT; 0.5 nM
  surviving fraction: 1.22 ± 0.18
VORINOSTAT; 1 nM
  surviving fraction: 1.23 ± 0.18
VORINOSTAT; 5 nM
  surviving fraction: 1.16 ± 0.12
VORINOSTAT; 10 nM
  surviving fraction: 1.08 ± 0.2
VORINOSTAT; 50 nM
  surviving fraction: 1.37 ± 0.13
VORINOSTAT; 100 nM
  surviving fraction: 1.4 ± 0.19
VORINOSTAT; 500 nM
  surviving fraction: 1.23 ± 0.16
VORINOSTAT; 1000 nM
  surviving fraction: 1.04 ± 0.17
